Laboratory results published in paper PMC10830516 (Current Research in Structural Biology, 2024).
Square brackets hold non-standard residues; d marks the D form. Peptide text beside a SMILES is read from it. * marks the point of attachment. Sta = CC(C)C[C@H](N)[C@@H](O)CC(=O)O; Isovaleryl = CC(C)CC(=O)*

Tests used:
[1] = system: PMII; conditions: cited from earlier work
[2] = biological target: plasmepsin X (PMX) (Plasmodium falciparum, UniProt Q8IAS0); assay: Inhibition of PMX hydrolysis of Rh2N fluorogenic peptide substrate; format: biochemical, P. falciparum; conditions: Ki against PMX, mature PMX, pH 5.5, 1 μM Rh2N substrate; Ki by Cheng-Prusoff
Sequence of plasmepsin X (PMX) (Q8IAS0 235-573): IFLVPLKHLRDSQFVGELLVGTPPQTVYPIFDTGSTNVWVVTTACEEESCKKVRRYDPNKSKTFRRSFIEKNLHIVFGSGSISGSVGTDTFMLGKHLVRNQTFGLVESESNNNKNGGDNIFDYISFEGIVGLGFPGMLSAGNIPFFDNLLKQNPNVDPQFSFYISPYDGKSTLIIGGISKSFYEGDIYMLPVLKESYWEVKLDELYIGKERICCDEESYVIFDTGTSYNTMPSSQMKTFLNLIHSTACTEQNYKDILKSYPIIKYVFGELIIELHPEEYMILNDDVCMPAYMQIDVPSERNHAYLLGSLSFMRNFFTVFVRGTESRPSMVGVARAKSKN

[3] = biological target: plasmepsin II (PMII) (Plasmodium falciparum, UniProt P46925); assay: Inhibition of PMII hydrolysis of Hb-based fluorogenic peptide substrate; format: biochemical, P. falciparum
Sequence of plasmepsin II (PMII) (P46925 125-453): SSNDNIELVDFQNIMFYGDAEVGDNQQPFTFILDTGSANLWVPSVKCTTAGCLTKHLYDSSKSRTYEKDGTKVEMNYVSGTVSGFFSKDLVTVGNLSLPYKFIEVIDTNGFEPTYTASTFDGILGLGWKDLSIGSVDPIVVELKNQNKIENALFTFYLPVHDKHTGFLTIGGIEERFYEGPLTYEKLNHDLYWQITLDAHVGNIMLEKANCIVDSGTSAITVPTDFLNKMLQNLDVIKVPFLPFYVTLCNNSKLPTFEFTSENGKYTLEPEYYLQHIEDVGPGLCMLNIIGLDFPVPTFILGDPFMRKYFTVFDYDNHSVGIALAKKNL

Compound	IC50 ([1]; achiral inhibitors, ref Boss et al., 2006, Prade et al., 2005) [nM]	Ki [2] [µM]	Ki [3] [nM]	Ki ([1]; PMII complex PDB ID 1XDH, ref Silva et al., 1996) [pM]
CCCCCc1ccc(C(=O)N(Cc2ccc(-c3ccc(C(=O)N4CCCCC4)cc3)cc2)C2CCN(Cc3ccccn3)CC2)nc1 [2IGX]	54			
Cc1cccc(C)c1OCC(=O)N[C@@H](Cc1ccccc1)[C@@H](O)C[C@H](Cc1ccccc1)NC(=O)[C@H](C(C)C)N1CCCNC1=O [LPV, Lopinavir]		14	700	
CC(C)(C)NC(=O)[C@@H]1CN(Cc2cccnc2)CCN1C[C@@H](O)C[C@@H](Cc1ccccc1)C(=O)N[C@H]1c2ccccc2C[C@H]1O [IDV, Indinavir]			2400	
Cc1c(O)cccc1C(=O)N[C@@H](CSc1ccccc1)[C@H](O)CN1C[C@H]2CCCC[C@H]2C[C@H]1C(=O)NC(C)(C)C [NFV, Nelfinavir]		60	1400	
CC(C)CC(=O)N[C@H](C(=O)N[C@H](C(=O)N[C@@H](CC(C)C)[C@@H](O)CC(=O)N[C@@H](C)C(=O)N[C@@H](CC(C)C)[C@@H](O)CC(=O)O)C(C)C)C(C)C [pepstatin A] (Isovaleryl-VV[Sta]A[Sta]-OH)				6
CC(C)(C)NC(=O)[C@@H]1C[C@@H]2CCCC[C@@H]2CN1C[C@@H](O)[C@H](Cc1ccccc1)NC(=O)[C@H](CC(N)=O)NC(=O)c1ccc2ccccc2n1 [SQV, Saquinavir]		44	1000	
